In one data set the test system is AR. Description: AR antagonistic activity: AR / PSA ARE1 luciferase reporter gene assay in transfected LNCaP cells stimulated with 1 nM DHT. The data set is classed as cell-based. As for the experimental part: LNCaP cells were plated in a 6-well plate (Corning, 3516) at 8 × 10^5 cells/well.
Transfection reagents Lipo 3000 and P3000 (Lipofectamine™ 3000) and AR and PSA ARE1 reporter gene plasmids (Bio (Anhui) Co., Ltd.) (a total of 2.5 µg of plasmids, i.e., 1.25 µg of each plasmid, were added to each well) were left to stand and incubated at room temperature for 10 min, and then 250 µL of the above transfection reagents were added dropwise to each well containing cells.
The cells were washed with PBS, and the medium was replaced with a phenol red-free RPMI-1640 medium containing 5% carbon adsorption serum. The cells were re-plated onto a 96-well plate (Corning, 3603) according to the number of cells plated (2 × 10^4 cells/well).
After cell plating, the test compound (or DMSO or positive control) was added. After at least 30 min of incubation (incubator, 37 °C, 5% CO2), DHT (dihydrotestosterone) was added to the culture system at a final concentration of 1 nM. The culture system was then incubated in a carbon dioxide incubator. The final volume of the system in the plate was 100 µL.
Test compound: 10 mM stock solution, with a final concentration of 3.3 µM or 6.7 µM. Negative control: 0.1% DMSO. Positive control: 30 µM enzalutamide.
After the test compound (or DMSO or positive control) and DHT were co-incubated for 6 or 24 h, the luciferase signal was detected using the Vazyme Bright-Lite substrate. The medium was added at 70 µL/well, and the plate was shaken for 2 min, followed by reading of the luciferase signal.
Assay robustness was confirmed using the DMSO and low concentration control data: Ave_H = Ave (DMSO) [formula] Ave_L = Ave (30000nMenzalutamide) [formula] Inhibition rate (%) = (Ave_H−Sample)/(Ave_H−Ave_L) × 100% [formula] • Ave_H: the measurement of the negative control (0.1% DMSO); • Ave_L: the measurement of the positive control (30 µM enzalutamide); • Sample: the measurement of the test compound;
(In a reporter assay the amount or activity of a reporter protein is the signal.)

The conditions of data set [1]: human, microsomes, 1 µM, pH 7.4.
Protocol: (§1) The metabolic stability of compounds disclosed herein in liver microsomes was determined using the following method.
(§2) Liver microsome source: Human liver microsome (Corning, 452117) • 2. Na2HPO4 (Tianjin Guangfu Fine Chemical Research Institute, 20180130) • 3. KH2PO4 (Tianjin Guangfu Fine Chemical Research Institute, 20180920) • 4. MgCl2 (Tianjin Guangfu Fine Chemical Research Institute, 20191216) • 5. NADPH (Solarbio, 1216C022) • 6. Positive control compound: verapamil (Sigma, MKBV4993V) • 7. AB Sciex Triple Quad 4000 liquid chromatography-mass spectrometry system
(§3) Preparation of 100 mM phosphate-buffered saline (PBS): 7.098 g Na2HPO4 was dissolved in 500 mL of purified water by sonication to give solution A. 3.400 g of KH2PO4 was dissolved in 250 mL of purified water by sonication to give solution B. Solution A was placed on a stirrer, and solution B was added slowly until the pH reached 7.4, so as to give a 100 mM PBS buffer. […] Preparation of reaction system The reaction system was prepared according to the table below.
(§4) The reaction system was pre-incubated in a 37 °C water bath for 10 min. 40 µL of 10 mM NADPH solution (in 100 mM phosphate-buffered saline) was added to the reaction system, with the final NADPH concentration being 1 mM. A negative control was prepared by replacing the NADPH solution with 40 µL of phosphate-buffered saline. The negative control was used to exclude the effect of the chemical stability of the compound itself. […] The reaction was initiated by adding 4 µL of 100 µM compound disclosed herein or positive control compound verapamil to the reaction system at a final concentration of 1 µM. […] After 0.5 min, 15 min, 30 min, 45 min, and 60 min of mixing well by using a vortex oscillator, 50 µ L of the incubated sample was taken out, and glacial acetonitrile containing an internal standard of 4 folds was added to terminate the reaction. The sample was centrifuged at 3,220 g for 45 min. 90 µL of the supernatant was transferred to a feeding plate after the centrifugation was completed, and 90 µL ultrapure water was added. The mixture was well mixed for LC-MS/MS analysis.
(§5) All data were calculated by using Microsoft Excel software. The peak areas were determined by using an extracted ion chromatogram. The in vitro half-life (T1/2) of the test compound was determined by linear fitting of the natural logarithm of the elimination proportion of the test compound over time. In vitro half-life (T1/2) was calculated by the slope k: in vitro T1/2 = 0.693/k [formula]
(§6) The in vitro intrinsic clearance (in vitro CLint, unit: µL/min/mg protein) was calculated using the following formula: in vitro CLint = k × volume of incubation solution/enzyme protein content; [formula]
For data set [2] the following is noted: 5 µM.
Protocol: (§7) 1 mM stock solutions of the test compounds were prepared in DMSO, and a 1 mM stock solution of the reference compound propantheline was prepared in acetonitrile.
(§8) 4 µL of test compound stock solution (or reference compound stock solution) was added to 796 µL of pre-incubated whole blood (CD-1 mouse whole blood or human whole blood) at a final concentration of 5 µM. The final concentration of the solvent was 0.5%. At different time points (including 5 min, 15 min, 30 min, 60 min, and 120 min), a 50 µL aliquot of the whole blood containing the sample was added to a new tube and incubated in a 37 °C water bath with shaking at 60 rpm. The treatment was performed in duplicate. At designated time points, 300 µL of room-temperature quenching solution (a solution of acetonitrile containing internal standards (100 nM alprazolam, 500 nM labetalol, and 2 µM ketoprofen)) was added to the whole blood sample containing the sample to terminate the reaction. 50 µL of whole blood containing the sample was added to a new tube containing 300 µL of room-temperature quenching solution to prepare a sample at 0 min. All samples were vortexed for 5 min. The samples in the plate were centrifuged at 3220 g for 30 min at 4 °C to precipitate the proteins. 100 µL of the supernatant was transferred to a new 96-well plate containing 100 µL of water for LC-MS/MS analysis.
(§9) The peak area ratio was determined by using an extracted ion chromatogram. The proportion of remaining compound at each time point was calculated according to the following formula: Remaining proportion t min (%) = peak area ratio t min / peak area ratio 0 min × 100% [formula] • Peak area ratio t min: peak area ratio of reference compound to test compound at t min; • Peak area ratio 0 min: peak area ratio of reference compound to test compound at time zero.
(§10) The slope value was determined by linear regression on the curve of the natural logarithm of the remaining proportion of the test compound versus the incubation time.
(§11) Determination of in vitro half-life (in vitro t1/2) from the slope value: in vitro t1/2 = 0.693/k [formula] in the formula, k is the rate constant (k = -slope value)
The conditions of data set [3]: 5 µM. This is another data set of the same source.
Protocol: as §7, §8, §9, §10, §11
The nature of data set [4]: in vitro. The note with it: human, blood, Half-life T 1/2 in human whole blood.
Protocol: as §7, §8, §9, §10, §11
Data set [5] in a line: in vitro. The note with it: human, microsomes; for microsomal CLint at 1 µM: pH 7.4, In vitro Clint; for half-life at 1 µM: pH 7.4, In vitro T1/2.
Protocol: as §1, §2, §3, §4, §5, §6
Data set [6] can be described thus: in vitro. The note with it: mouse, blood, Half-life T 1/2 in CD-1 mouse whole blood.
Protocol: as §7, §8, §9, §10, §11
The mark [7] stands for this setting: incubation time: 24 h, test concentration: 3.3 µM, LNCaP cells, 1 nM DHT, normalised to 0.1% DMSO and 30 µM enzalutamide.

Marks after values point to notes of the source that are not given here.

Take `CSc1cc(NC(=O)C(C)(O)CCCC(=O)OC(C)(C)C)cnc1C#N` (centres unmarked) [Compound 019, tert-butyl 6-((6-cyano-5-(methylthio)pyridin-3-yl)amino)-5-hydroxy-5-methyl-6-oxohexanoate]: in the data set on AR (incubation time: 6 h, test concentration: 6.7 µM, LNCaP cells, 1 nM DHT, normalised to 0.1% DMSO and 30 µM enzalutamide), the “AR antagonism (inhibition rate, %)” value is on record as 57.98^b %.

As to `COC(=O)CCCC(C)(O)C(=O)Nc1cnc(C#N)c(SC)c1` (single isomer, unassigned) [Compound 015], in data set [1], the “In vitro Clint” value came out at 270.78 µL/min/mg protein and the “In vitro T1/2” value was determined as 5.12 min. Moreover, in the data set on AR (24 h, 3.3 µM), the “AR antagonism (inhibition rate, %)” value was 92.46^a %. The “Half-life T 1/2 in CD-1 mouse whole blood” value in data set [2] is recorded as 4.34 min. Further, the “Half-life T 1/2 in human whole blood” value in data set [3] is reported as 164.02 min.

As for `CSc1cc(NC(=O)C(C)(O)CCCC(=O)OC(C)C)cnc1C#N` (single isomer, unassigned) [Compound 018], in data set [1], the “In vitro Clint” value is given as 247.8 µL/min/mg protein and the “In vitro T1/2” value is reported as 5.6 min. Also, the “AR antagonism (inhibition rate, %)” value in the data set on AR (24 h, 6.7 µM) is 63.12^c %. Besides, in data set [2], the “Half-life T 1/2 in CD-1 mouse whole blood” value was 4.93 min. Moreover, the “Half-life T 1/2 in human whole blood” value in data set [3] was determined as 194.81 min.

Turning to `COC(=O)CCCC(C)(O)C(=O)Nc1cnc(C#N)c(C(F)(F)F)c1` (single isomer, unassigned) [Compound 008], in data set [1], the “In vitro Clint” value is reported as 131.2 µL/min/mg protein and the “In vitro T1/2” value was 10.6 min. Further, in the data set with AR (6 h, 6.7 µM), the “AR antagonism (inhibition rate, %)” value is 92.41^b %. Besides, the “Half-life T 1/2 in CD-1 mouse whole blood” value in data set [2] is on record as 3.94 min. In addition, the “Half-life T 1/2 in human whole blood” value in data set [3] turned out to be 141.44 min.

In the case of `CSc1cc(NC(=O)C(O)CCCC(=O)OC(C)C)cnc1C#N` (centres unmarked) [Compound 032, Isopropyl 6-((6-cyano-5-(methylthio)pyridin-3-yl)amino)-5-hydroxy-6-oxohexanoate], the “AR antagonism (inhibition rate, %)” value with AR (setting [7]) is 92.25^a %.

In the case of `CC(O)(CCO)C(=O)Nc1cnc(C#N)c(C(F)(F)F)c1` (centres unmarked) [Compound 002, N-[6-cyano-5-(trifluoromethyl)pyridin-3-yl]-2,4-dihydroxy-2-methylbutanamide], in the data set on AR (setting [7]), the “AR antagonism (inhibition rate, %)” value was 59.75^a %.

The half-life is the time needed for the level to fall by half in the phase considered. High values mean slow decline, low ones rapid decline. As a reminder, the microsomal CLint is a measure of how fast metabolising enzymes remove a compound, apart from limits set by blood flow. A high value points to faster metabolism. As for `COC(=O)CCCC(C)(O)C(=O)Nc1cnc(C#N)c(C(F)(F)F)c1` (single isomer, unassigned) [Compound 007], the “AR antagonism (inhibition rate, %)” value in the data set with AR (24 h, 6.7 µM) is listed as 100.00^c %. This molecule also showed a half-life at 5 µM in “in vitro [4]” of 82.7 min. Further, in “in vitro [5]”, the microsomal CLint at 1 µM was determined as 226 µL/min/mg and the half-life at 1 µM was found to be 6.1 min. Further, in “in vitro [6]”, the half-life at 5 µM worked out at 2.7 min.

For the molecule `COC(=O)CCCC(C)(O)C(=O)Nc1cnc(C#N)c(SC)c1` (single isomer, unassigned) [Compound 016], in data set [1], the “In vitro Clint” value is recorded as 1216.15 µL/min/mg protein and the “In vitro T1/2” value was 1.14 min. In addition, the “Half-life T 1/2 in CD-1 mouse whole blood” value in data set [2] is listed as 9.44 min. Moreover, the “Half-life T 1/2 in human whole blood” value in data set [3] came out at 70.19 min.

For the molecule `CC(O)(CCCCO)C(=O)Nc1cnc(C#N)c(C(F)(F)F)c1` (centres unmarked) [Compound 001, N-[6-cyano-5-(trifluoromethyl)pyridin-3-yl]-2,6-dihydroxy-2-methyl-hexanamide], the “AR antagonism (inhibition rate, %)” value with AR (setting [7]) is recorded as 87.89^a %.

Consider `CCOC(=O)CCCC(C)(O)C(=O)Nc1ccc(C#N)c(OC)c1` (centres unmarked) [Compound 030, Ethyl 6-(4-cyano-3-methoxy-anilino)-5-hydroxy-5-methyl-6-oxohexanoate], for which the “AR antagonism (inhibition rate, %)” value in the data set on AR (setting [7]) is 98.45^a %.

Take `CCOC(=O)CCCC(C)(O)C(=O)Nc1ccc(C#N)c(SC)c1` (centres unmarked) [Compound 029, Ethyl 6-(4-cyano-3-methylthio-anilino)-5-hydroxy-5-methyl-6-oxohexanoate]: in the data set on AR (setting [7]), the “AR antagonism (inhibition rate, %)” value is reported as 98.41^a %.

In the case of `CC(C)OC(=O)CCCC(C)(O)C(=O)Nc1cnc(C#N)c(C(F)(F)F)c1` (single isomer, unassigned) [Compound 009], in the data set with AR (24 h, 6.7 µM), the “AR antagonism (inhibition rate, %)” value is given as 97.66^c %. In addition, the half-life at 5 µM in “in vitro [4]” amounted to 210 min; in the data set “in vitro [6]” it was 10 min. The microsomal CLint at 1 µM in the data set “in vitro [5]” turned out to be 234 µL/min/mg. Besides, the half-life at 1 µM in the data set “in vitro [5]” came out at 5.9 min.

As for `CCOC(=O)CCCCC(C)(O)C(=O)Nc1cnc(C#N)c(C(F)(F)F)c1` (centres unmarked) [Compound 027, Ethyl 7-((6-cyano-5-(trifluoromethyl)pyridin-3-yl)amino)-6-hydroxy-6-methyl-7-oxoheptanoate], in the data set with AR (setting [7]), the “AR antagonism (inhibition rate, %)” value is listed as 76.55^a %.

With `CSc1cc(NC(=O)C(C)(O)CCCC(=O)OC(C)C)cnc1C#N` (single isomer, unassigned) [Compound 017], the half-life at 5 µM in the data set “in vitro [4]” was determined as 206 min. In “in vitro [5]”, this molecule registered a microsomal CLint at 1 µM of 243 µL/min/mg and a half-life at 1 µM of 5.7 min. In the data set “in vitro [6]”, this molecule gave a half-life at 5 µM of 4.64 min.

As to `CCOC(=O)CCCC(C)(O)C(=O)Nc1cnc(C#N)c(SC)c1` (single isomer, unassigned) [Compound 013], the half-life at 5 µM was 118 min in “in vitro [4]” and less than 0.5 min in the data set “in vitro [6]”. Moreover, the intrinsic metabolic clearance (microsomal CLint) at 1 µM in the data set “in vitro [5]” was 487 µL/min/mg. The same molecule gave a half-life at 1 µM in “in vitro [5]” of 2.8 min.

In the case of `CCOC(=O)CCC[C@](C)(O)C(=O)Nc1cnc(C#N)c(SC)c1` [Compound 014, ethyl (6S)/(6R)-6-((6-cyano-5-(methylthio)pyridin-3-yl)amino)-5-hydroxy-5-methyl-6-oxohexanoate], the “AR antagonism (inhibition rate, %)” value in the data set on AR (incubation time: 24 h, test concentration: 6.7 µM, LNCaP cells, 1 nM DHT, normalised to 0.1% DMSO and 30 µM enzalutamide) was 64.39^c %. Moreover, the “Half-life T 1/2 in CD-1 mouse whole blood” value in data set [2] worked out at 1.13 min. Also, in data set [3], the “Half-life T 1/2 in human whole blood” value turned out to be 89.49 min.

Consider `CCOC(=O)CCCC(C)(O)C(=O)Nc1cnc(C#N)c(C(F)(F)F)c1` (single isomer, unassigned) [Compound 005], for which, in data set [1], the “In vitro Clint” value is reported as 670.7 µL/min/mg protein and the “In vitro T1/2” value is 2.1 min. Moreover, the “AR antagonism (inhibition rate, %)” value with AR (6 h, 6.7 µM) is 92.96^b %. The half-life at 5 µM in the data set “in vitro [4]” was 119 min. The half-life at 5 µM in “in vitro [6]” stood at 3.54 min.

In the case of `CCOC(=O)CCCC(C)(O)C(=O)Nc1cnc(C#N)c(C(F)(F)F)c1` (single isomer, unassigned) [Compound 006], in data set [1], the “In vitro Clint” value came out at 199.5 µL/min/mg protein. In data set [1], the “In vitro T1/2” value amounted to 6.9 min. The “AR antagonism (inhibition rate, %)” value in the data set with AR (24 h, 3.3 µM) is listed as 88.13^a %; with AR (24 h, 6.7 µM) it was 90.51^c %. The “Half-life T 1/2 in CD-1 mouse whole blood” value in data set [2] is reported as 3.61 min. Also, the “Half-life T 1/2 in human whole blood” value in data set [3] is 183.42 min.

For the molecule `CCOC(=O)CCCC(C)(O)C(=O)Nc1cnc(C#N)c([Se]C)c1` (centres unmarked) [Compound 024, Ethyl 6-[(6-cyano-5-methylselanylpyridin-3-yl)amino]-5-hydroxy-5-methyl-6-oxohexanoate], in the data set on AR (setting [7]), the “AR antagonism (inhibition rate, %)” value is on record as 88.18^a %.

These data come from patent EP4786452A1, “AMIDE COMPOUNDS” (China Pharmaceutical University, priority 2023, dated 2025).
